# Measured values from patent US20170224819A1, “Therapeutic Combinations of a BTK Inhibitor, a PI3K Inhibitor, a JAK-2 Inhibitor, and/or a CDK 4/6 Inhibitor” (Acerta Pharma B.V., priority 2014, published 2017).
# “Also recorded” adds a separate entry of the source.
# Legend:
# [1] = tested on: GPVI platelet aggregation; test: GPVI platelet aggregation studies; type: cell-based; conditions: read-out: IC50, GPVI platelet aggregation
# ID8 ovarian cancer = test: ID8 syngeneic orthotropic ovarian cancer model; type: in vivo, mice
# Source text: FIG. 108 illustrates the effects of vehicle on flux at two timepoints, as a control for comparison with FIG. 109, in the ID8 syngeneic orthotropic ovarian cancer model.
# KPC pancreatic cancer = KPC pancreatic cancer model; type: in vivo
# CLL = test: Clinical study of Formula (XVIII) in CLL; type: in vivo
# Source text: J. Med. 2013, 369, 32-42.
# [2] = tested on: orthotopic pancreatic cancer (KPC derived cells); test: Orthotopic pancreatic cancer model (KPC cell line implanted in C57BL/6 mice); type: in vivo; conditions: orthotopic PDA model, oral 15 mg/kg
# Experimental: Cell line derived from KrasG12D; Trp53R172H; Pdxl-Cre (KPC) mice were orthotopically implantated into the head of the pancreas after 35 passages. Based on the mice background from where the cell lines were generated, 1×10^6 cells were injected in C57BL/6 mice. Throughout the experiment, animals were provided with food and water ad libitum and subjected to a 12-h dark/light cycle. Animal studies were performed in accordance with the U.S. Public Health Service “Guidelines for the Care and Use of Laboratory Animals” (IACUC). After euthanization, pancreatic tumors were dissected out, weighed and single cell suspensions were prepared for flow cytometry analysis.
# [3] = tested on: human platelet-mediated thrombosis; test: In vivo human thrombus formation in the VWF HA1 mice model (laser-induced injury); conditions: pretreated human platelets
# Experimental: Constitutive or aberrant activation of the BCR signaling cascade has been implicated in the propagation and maintenance of a variety of B cell malignancies. […] J. Haematol. […] In fact, both Tec and BTK play an important role in the regulation of phospholipase Cγ2 (PLCγ2) downstream of the collagen receptor glycoprotein VI (GPVI) in human platelets. […] Biotechnol.
# Injury to the vessel wall of arterioles ([…] diameter) was performed using a pulsed nitrogen dye laser (440 nm, Photonic Instruments) applied through a 20× water-immersion Olympus objective (LUMPlanFl, 0.5 numerical aperature (NA)) of a Zeiss Axiotech vario microscope. […] The extent of thrombus formation was assessed for 2 minutes after injury and the area (μm^2) of coverage determined (Image IQ, Andor Technology).
# The BTK inhibitor-treated human platelets were fluorescently labeled and infused continuously through a catheter inserted into the femoral artery.
# canine B cell lymphoma = test: Veterinary clinical trial in companion dogs with lymphoma; type: in vivo
# Experimental: Enrollment has completed for Arm 1 and is ongoing for Arm 2.
# Intra-subject dose escalation was allowed. Six of the 11 dogs that initiated at 2.5 or 5 mg/kg once daily were escalated and completed the study with dosages of 10 mg/kg twice daily. Among all the dose cohorts, 8 dogs had shrinkage of target lesions >20%; the best tumor responses were between 45-49% reduction in the sum of target lesions in two dogs.
# [4] = tested on: spontaneous pancreatic tumors (KPC mice); test: KPC mouse model of advanced pancreatic cancer; type: in vivo; conditions: for Tumor volume, average: N=6
# Experimental: The KPC mouse model recapitulates many of the molecular, histopathologic, and clinical features of human disease (Westphalen and Olive, Cancer J. 2012, 18, 502-510). Combination therapy with gemcitabine was also evaluated in this model. Mice were enrolled after identification of spontaneously appearing tumors in the pancreas that were >100 mm^3 (as assessed by high-resolution ultrasonography).
# NK cells = test: Antibody-dependent NK cell cytokine (IFN-γ) secretion, ELISA; type: cell-based, human; conditions: 1 μM, HER18 target cells
# Experimental: Cytokine secretion was determined as follows. […] NK cells from healthy donors were enriched as described above and then added to the target cells and incubated for 4 hours at 37° C. Triplicate cultures were performed on NK cells from donors. After incubation, supernatants were harvested, centrifuged briefly, and then analyzed for interferon-γ using an enzyme-linked immunosorbent assay (ELISA) (R&D Systems, Minneapolis, Minn., USA).
# BTK = biological target: T1, BTK (Mus musculus, UniProt P35991); test: Molecular probe assay of irreversible BTK occupancy in MDSCs of tumor bearing PDA mice; type: in vivo; conditions: 15 mg/kg BID, Day 8, 4 hours post dose (N=5)
# T1 construct: MDSCs were purified from tumor bearing PDA mice; endogenous in cells; host or cells: granulocytic and monocytic MDSCs from tumour-bearing PDA mice
# T1 sequence (P35991 whole entry): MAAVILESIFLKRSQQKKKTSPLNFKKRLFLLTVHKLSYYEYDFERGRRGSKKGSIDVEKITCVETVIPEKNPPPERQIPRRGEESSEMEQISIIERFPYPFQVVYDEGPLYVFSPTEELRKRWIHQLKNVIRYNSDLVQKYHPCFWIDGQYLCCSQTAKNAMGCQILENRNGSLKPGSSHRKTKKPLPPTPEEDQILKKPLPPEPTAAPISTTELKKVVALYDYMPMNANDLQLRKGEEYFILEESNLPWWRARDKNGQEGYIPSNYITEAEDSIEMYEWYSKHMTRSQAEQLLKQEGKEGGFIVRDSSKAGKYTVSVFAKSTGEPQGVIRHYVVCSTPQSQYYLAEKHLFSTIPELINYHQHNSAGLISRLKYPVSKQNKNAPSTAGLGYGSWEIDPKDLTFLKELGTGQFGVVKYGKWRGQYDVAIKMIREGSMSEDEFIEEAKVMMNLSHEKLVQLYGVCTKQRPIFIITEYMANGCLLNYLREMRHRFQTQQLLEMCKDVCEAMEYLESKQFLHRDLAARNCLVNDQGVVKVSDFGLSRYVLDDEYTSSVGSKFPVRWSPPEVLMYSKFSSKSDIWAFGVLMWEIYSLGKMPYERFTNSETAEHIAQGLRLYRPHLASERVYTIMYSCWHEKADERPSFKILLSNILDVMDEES
# Source text: A molecular probe assay was used to calculate the percent irreversible occupancy of total BTK.
# [5] = tested on: NSCLC (KrasLA2) lung tumors; test: Genetic tumor model of NSCLC (KrasLA2); type: in vivo, mice; conditions: 15 mg/kg
# Source text: The model is designed to have sporadic expression in single cells of G12D mutant Kras off its own promoter triggered by spontaneous intrachromosomal recombination. Johnson, et al. Nature 2001, 410, 1111-16. While the mutant Kras protein is expressed in a few cells in all tissues, tumor development is seen only in the lung at high penetrance.
# [6] = Brain PK experiments (brain and CSF versus plasma); type: in vivo, Sprague-Dawley rats; conditions: rats, 5 or 30 mg/kg/day
# Source text: Two vehicle treated rats were sacrificed on each sampling day for comparison.
# Txk = Txk (Homo sapiens, UniProt P42681); test: biochemical
# Chain of Txk (P42681 whole entry): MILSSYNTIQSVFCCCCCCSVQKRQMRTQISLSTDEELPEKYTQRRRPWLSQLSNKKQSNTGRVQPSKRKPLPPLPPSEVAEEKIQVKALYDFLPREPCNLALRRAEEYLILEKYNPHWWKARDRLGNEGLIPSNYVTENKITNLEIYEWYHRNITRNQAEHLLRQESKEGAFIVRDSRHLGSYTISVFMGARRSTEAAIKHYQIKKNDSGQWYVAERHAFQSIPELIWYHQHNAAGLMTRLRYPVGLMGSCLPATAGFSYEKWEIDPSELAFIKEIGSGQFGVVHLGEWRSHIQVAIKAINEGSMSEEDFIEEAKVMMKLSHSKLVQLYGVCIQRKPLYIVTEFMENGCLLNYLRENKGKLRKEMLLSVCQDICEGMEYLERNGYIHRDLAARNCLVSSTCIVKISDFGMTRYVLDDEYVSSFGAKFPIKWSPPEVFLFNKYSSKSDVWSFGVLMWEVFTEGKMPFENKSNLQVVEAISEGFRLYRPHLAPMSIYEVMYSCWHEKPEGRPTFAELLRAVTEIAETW
# [7] = Study of respiratory function; conditions: rats, doses through 300 mg/kg
# EGFR = EGFR (Homo sapiens, UniProt P00533); test: EGF-induced EGFR phosphorylation in A431 cells (phosphoflow); conditions: 10 μM; A431 human epidermoid cancer cell line
# Chain of EGFR (P00533 25-1210): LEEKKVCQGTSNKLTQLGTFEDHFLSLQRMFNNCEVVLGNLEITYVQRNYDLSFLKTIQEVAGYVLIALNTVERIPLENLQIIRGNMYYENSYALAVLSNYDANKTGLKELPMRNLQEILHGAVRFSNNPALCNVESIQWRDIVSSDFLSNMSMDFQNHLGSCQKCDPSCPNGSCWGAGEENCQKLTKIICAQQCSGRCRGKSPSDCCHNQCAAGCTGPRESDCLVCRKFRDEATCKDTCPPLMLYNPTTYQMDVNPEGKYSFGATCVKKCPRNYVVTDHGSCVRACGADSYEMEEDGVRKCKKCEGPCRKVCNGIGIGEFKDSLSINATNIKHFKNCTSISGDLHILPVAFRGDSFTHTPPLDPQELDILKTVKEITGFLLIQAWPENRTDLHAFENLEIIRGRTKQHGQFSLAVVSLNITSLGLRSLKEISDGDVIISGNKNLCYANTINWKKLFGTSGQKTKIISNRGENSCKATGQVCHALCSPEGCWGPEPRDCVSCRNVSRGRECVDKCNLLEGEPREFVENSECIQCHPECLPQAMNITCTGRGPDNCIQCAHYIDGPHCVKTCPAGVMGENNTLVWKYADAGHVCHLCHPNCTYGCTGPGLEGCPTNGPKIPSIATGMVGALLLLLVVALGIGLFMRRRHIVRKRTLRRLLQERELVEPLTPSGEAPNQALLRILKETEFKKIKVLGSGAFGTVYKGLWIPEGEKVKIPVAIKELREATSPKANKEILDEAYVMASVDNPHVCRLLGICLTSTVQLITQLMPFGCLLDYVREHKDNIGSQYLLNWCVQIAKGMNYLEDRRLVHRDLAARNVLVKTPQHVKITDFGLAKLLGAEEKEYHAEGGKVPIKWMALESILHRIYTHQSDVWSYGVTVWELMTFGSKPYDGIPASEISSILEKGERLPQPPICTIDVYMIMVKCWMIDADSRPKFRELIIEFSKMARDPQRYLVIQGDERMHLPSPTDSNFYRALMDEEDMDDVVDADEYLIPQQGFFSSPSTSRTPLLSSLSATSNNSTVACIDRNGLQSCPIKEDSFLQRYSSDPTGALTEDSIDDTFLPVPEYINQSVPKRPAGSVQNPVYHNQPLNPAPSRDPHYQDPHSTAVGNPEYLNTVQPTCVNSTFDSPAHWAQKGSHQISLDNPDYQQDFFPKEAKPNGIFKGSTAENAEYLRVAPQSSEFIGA
# [8] = tested on: chronic lymphocytic leukemia (CLL); test: Clinical study of Formula (XVIII) in relapsed/refractory CLL
compound,measurement,setting,value
"CC#CC(=O)N1CCC[C@H]1c1nc(-c2ccc(C(=O)Nc3ccccn3)cc2)c2c(N)nccn12 [Formula (XVIII), (S)-4-(8-amino-3-(1-(but-2-ynoyl)pyrrolidin-2-yl)imidazo[1,5-a]pyrazin-1-yl)-N-(pyridin-2-yl)benzamide]",IC50,[1],1150 nM
same,immunosuppressive tumor associated Tregs,ID8 ovarian cancer; FIG. 114,significant reduction
same,CD8+ T cells,ID8 ovarian cancer; FIG. 115,increase
same,ID8 ovarian cancer growth,"ID8 ovarian cancer; syngeneic murine model, in comparison to vehicle, FIG. 111",impairs
same,immunosuppressive tumor associated lymphocytes,"ID8 ovarian cancer; tumor-bearing mice, in comparison to vehicle, FIG. 110",significant reduction
same,total B cells,"ID8 ovarian cancer; tumor-bearing mice, FIG. 112",significant reduction
same,B regulatory cells (Bregs),"ID8 ovarian cancer; tumor-bearing mice, FIG. 113",significant reduction
same,immunosuppressive TAMs (CD11b+Ly6ClowF4/80+Csf1r+) in tumor tissues,KPC pancreatic cancer; FIG. 128,significantly reduced
same,immunosuppressive MDSCs (Gr1+Ly6CHi) in tumor tissues,KPC pancreatic cancer; FIG. 129,significantly reduced
same,immunosuppressive Tregs (CD4+CD25+FoxP3+) in tumor tissues,KPC pancreatic cancer; FIG. 130,significantly reduced
same,apoptosis,"CLL; CLL patients, FIG. 157",increased
same,sum of the product of greatest diameters (SPD),"CLL; CLL, compared with ibrutinib, FIG. 138",decreases more rapidly
same,absolute lymphocyte count (ALC),"CLL; CLL, relative to ibrutinib (Byrd et al. 2013), FIG. 138",much smaller relative increase and much faster decrease
same,CXCL12 levels,"CLL; patients treated, FIG. 158",decrease
same,CCL2 levels,"CLL; patients treated, FIG. 159",decrease
same,Immature myeloid infiltrate (MDSCs),[2],decreased immature myeloid infiltrate
same,Immunosuppressive Tregs,[2],reduced the number of immunosuppressive Tregs
same,Tumor associated macrophages,[2],reduced the number of tumor associated macrophages
same,Tumor burden,[2],significantly reduced tumor burden
same,Effect on human platelet-mediated thrombus formation,[3],does not interfere with thrombus formation; also recorded: no significant effect on human platelet-mediated thrombus formation
same,CR by investigator evaluation,canine B cell lymphoma,0/21
same,CD8+ cells in tumor tissues,[4]; 15 mg/kg BID orally,significant increase in CD8^+ cells
same,"Immunosuppressive TAMs, MDSCs and Tregs in tumor tissues",[4]; 15 mg/kg BID orally,significantly reduced
same,Pancreatic cancer growth and animal survival,[4]; 15 mg/kg BID orally,substantially slowed pancreatic cancer growth and increased animal survival
same,Survival,[4]; day 14,6/6
same,Survival,[4]; day 28,5/6
same,"Tumor volume, average","[4]; day 28, 15 mg/kg BID orally",272 mm^3
same,"Tumor volume, average","[4]; predose, 15 mg/kg BID orally",165 mm^3
same,Inhibition of trastuzumab-stimulated NK cell cytokine release,NK cells,no inhibitory effect
same,Irreversible BTK occupancy in granulocytic and monocytic MDSCs,BTK,Complete BTK occupancy
same,Number of tumors,[5],fewer overall tumors
same,Tumor volumes,[5],significant decrease in tumor volumes versus vehicle
same,Levels in brain and CSF samples,[6],low but detectable levels
same,IC50,Txk,291 nM
same,Respiratory function,[7],no treatment-related adverse effects
same,Inhibition of in vitro EGFR phosphorylation,EGFR,no inhibition
same,PD (progressive disease),[8]; 100 mg QD (N = 8),0 (0) n (%)
same,PD (progressive disease),[8]; 175 mg QD (N = 8),0 (0) n (%)
same,PD (progressive disease),[8]; 250 mg QD (N = 7),0 (0) n (%)
same,PD (progressive disease),[8]; All Cohorts (N = 31),0 (0) n (%)
same,PR (partial response),[8]; All Cohorts (N = 31),22 (71) n (%)
same,PR + L (partial response with lymphocytosis),[8]; All Cohorts (N = 31),7 (23) n (%)
same,Time of treatment at which the median % change in SPD achieved the same status,"[8]; CLL patients, present study",7 months
same,PFS (Kaplan-Meier) in comparison to ibrutinib,"[8]; CLL patients, Log-Rank p-value 0.0206",An improvement in survival and a reduction in risk
same,Treatment-related adverse event: Headache,"[8]; Grade 1/2, All (N = 44)",7 (16) n (%)
same,Treatment-related adverse event: Diarrhea,"[8]; Grade 1, All (N = 44)",4 (9) n (%)
same,Dose-limiting toxicities (DLTs),"[8]; human, in vivo",No DLTs were observed
same,Grade of adverse events,"[8]; human, in vivo",only grade 1 AEs were observed
same,Lymphocytosis,"[8]; human, in vivo",A lack of lymphocytosis was observed
same,Treatment-related adverse event: Increased tendency to bruise,"[8]; human, in vivo",6 (14) n (%)
same,Treatment-related adverse event: Petechiae,"[8]; human, in vivo",3 (7) n (%)
same,Treatment-related serious adverse events (SAEs),"[8]; human, in vivo",No treatment-related serious adverse events (SAEs) were observed
same,Progression in patients with the 17p deletion,[8]; to date,no 17p patients have progressed
